Laboratory results as given in the kinase profiling compilation of Christmann-Franck et al. (2016).

Columns and labels:
Assay in all cases: KINOMEscan competition binding
Conditions in all cases: compound 10.0 µM
STK32C (human) = STK32C (human) (UniProt Q86UX6)
CSNK1D (human) = CSNK1D (human) (UniProt P48730)
PAK2 (human) = PAK2 (human) (UniProt Q13177)
STK17A (human) = STK17A (human) (UniProt Q9UEE5)
TXK (human) = TXK (human) (UniProt P42681)
MAP2K4 (human) = MAP2K4 (human) (UniProt P45985)
CSNK1G2 (human) = CSNK1G2 (human) (UniProt P78368)
EPHB2 (human) = EPHB2 (human) (UniProt P29323)
NEK1 (human) = NEK1 (human) (UniProt Q96PY6)
[1] = target: TYK2 JH2 pseudokinase (human) (UniProt P29597)
GRK7 (human) = GRK7 (human) (UniProt Q8WTQ7)
CSNK1A1L (human) = CSNK1A1L (human) (UniProt Q8N752)
TLK1 (human) = TLK1 (human) (UniProt Q9UKI8)
PRKACA (human) = PRKACA (human) (UniProt P17612)
ERN1 (human) = ERN1 (human) (UniProt O75460)
PRKACB (human) = PRKACB (human) (UniProt P22694)
TNK1 (human) = TNK1 (human) (UniProt Q13470)
PAK6 (human) = PAK6 (human) (UniProt Q9NQU5)
AKT3 (human) = AKT3 (human) (UniProt Q9Y243)
NTRK3 (human) = NTRK3 (human) (UniProt Q16288)
CAMK1G (human) = CAMK1G (human) (UniProt Q96NX5)
MARK1 (human) = MARK1 (human) (UniProt Q9P0L2)
WEE1 (human) = WEE1 (human) (UniProt P30291)
FLT1 (human) = FLT1 (human) (UniProt P17948)
FES (human) = FES (human) (UniProt P07332)
MAPK1 (human) = MAPK1 (human) (UniProt P28482)
PRKCQ (human) = PRKCQ (human) (UniProt Q04759)
CAMK4 (human) = CAMK4 (human) (UniProt Q16566)
TIE1 (human) = TIE1 (human) (UniProt P35590)
PLK3 (human) = PLK3 (human) (UniProt Q9H4B4)
MAP3K12 (human) = MAP3K12 (human) (UniProt Q12852)
MAPK6 (human) = MAPK6 (human) (UniProt Q16659)
MAP4K5 (human) = MAP4K5 (human) (UniProt Q9Y4K4)
FGFR1 (human) = FGFR1 (human) (UniProt P11362)
PTK6 (human) = PTK6 (human) (UniProt Q13882)
IGF1R (human) = IGF1R (human) (UniProt P08069)
STK16 (human) = STK16 (human) (UniProt O75716)
EPHA7 (human) = EPHA7 (human) (UniProt Q15375)
DYRK1A (human) = DYRK1A (human) (UniProt Q13627)
TNNI3K (human) = TNNI3K (human) (UniProt Q59H18)
BTK (human) = BTK (human) (UniProt Q06187)
FGFR4 (human) = FGFR4 (human) (UniProt P22455)

STK32C (human), sequence (Q86UX6 whole entry, looked up): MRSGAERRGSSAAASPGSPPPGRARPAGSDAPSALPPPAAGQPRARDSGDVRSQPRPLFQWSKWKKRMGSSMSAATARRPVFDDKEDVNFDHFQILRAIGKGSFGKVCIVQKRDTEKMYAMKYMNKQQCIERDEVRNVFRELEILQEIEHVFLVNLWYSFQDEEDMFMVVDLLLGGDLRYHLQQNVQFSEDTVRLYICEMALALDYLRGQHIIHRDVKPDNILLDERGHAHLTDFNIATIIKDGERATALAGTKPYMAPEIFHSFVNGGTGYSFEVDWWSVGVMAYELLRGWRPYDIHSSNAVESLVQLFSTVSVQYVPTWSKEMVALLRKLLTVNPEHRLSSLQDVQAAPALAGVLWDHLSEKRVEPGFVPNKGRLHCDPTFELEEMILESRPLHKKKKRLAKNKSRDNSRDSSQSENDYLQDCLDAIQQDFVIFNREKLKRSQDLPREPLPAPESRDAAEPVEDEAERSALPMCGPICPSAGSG
STK16 (human), sequence (O75716 whole entry, looked up): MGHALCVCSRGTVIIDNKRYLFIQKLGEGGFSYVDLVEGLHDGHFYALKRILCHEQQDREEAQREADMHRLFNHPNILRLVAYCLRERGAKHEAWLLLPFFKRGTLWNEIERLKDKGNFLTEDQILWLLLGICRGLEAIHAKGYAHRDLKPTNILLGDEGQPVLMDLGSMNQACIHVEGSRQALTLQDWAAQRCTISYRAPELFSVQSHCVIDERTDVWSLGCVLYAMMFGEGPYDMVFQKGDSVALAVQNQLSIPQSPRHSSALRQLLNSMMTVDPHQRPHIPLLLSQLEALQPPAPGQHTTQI
TIE1 (human), sequence (P35590 whole entry, looked up): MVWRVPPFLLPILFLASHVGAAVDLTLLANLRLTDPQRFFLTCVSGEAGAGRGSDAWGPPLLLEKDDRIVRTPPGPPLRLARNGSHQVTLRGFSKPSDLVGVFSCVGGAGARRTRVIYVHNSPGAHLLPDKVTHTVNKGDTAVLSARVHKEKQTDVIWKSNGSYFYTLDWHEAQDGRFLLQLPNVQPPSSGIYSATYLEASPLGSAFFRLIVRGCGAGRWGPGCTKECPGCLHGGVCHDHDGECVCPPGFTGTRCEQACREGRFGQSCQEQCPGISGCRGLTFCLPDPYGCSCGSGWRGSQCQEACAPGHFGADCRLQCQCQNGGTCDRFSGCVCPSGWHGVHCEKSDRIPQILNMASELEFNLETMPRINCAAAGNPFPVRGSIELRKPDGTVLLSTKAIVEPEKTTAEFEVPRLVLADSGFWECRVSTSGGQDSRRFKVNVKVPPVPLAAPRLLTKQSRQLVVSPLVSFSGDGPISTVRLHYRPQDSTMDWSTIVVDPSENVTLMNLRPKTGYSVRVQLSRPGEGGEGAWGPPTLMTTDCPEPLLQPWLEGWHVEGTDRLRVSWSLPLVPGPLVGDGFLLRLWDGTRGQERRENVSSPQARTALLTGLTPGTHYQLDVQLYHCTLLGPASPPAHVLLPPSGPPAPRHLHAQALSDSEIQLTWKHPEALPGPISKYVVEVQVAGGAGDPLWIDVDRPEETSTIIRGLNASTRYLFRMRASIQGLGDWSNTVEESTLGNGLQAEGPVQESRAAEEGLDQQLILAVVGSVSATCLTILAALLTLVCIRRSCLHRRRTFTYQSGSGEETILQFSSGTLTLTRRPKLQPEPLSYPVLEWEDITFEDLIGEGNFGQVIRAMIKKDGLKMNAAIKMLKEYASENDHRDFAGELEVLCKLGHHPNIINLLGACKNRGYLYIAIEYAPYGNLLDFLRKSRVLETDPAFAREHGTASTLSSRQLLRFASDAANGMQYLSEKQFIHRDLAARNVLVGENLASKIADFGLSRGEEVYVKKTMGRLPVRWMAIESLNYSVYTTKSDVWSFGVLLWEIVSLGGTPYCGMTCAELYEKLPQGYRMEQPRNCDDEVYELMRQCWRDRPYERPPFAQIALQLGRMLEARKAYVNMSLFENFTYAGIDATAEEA
TNK1 (human), sequence (Q13470 whole entry, looked up): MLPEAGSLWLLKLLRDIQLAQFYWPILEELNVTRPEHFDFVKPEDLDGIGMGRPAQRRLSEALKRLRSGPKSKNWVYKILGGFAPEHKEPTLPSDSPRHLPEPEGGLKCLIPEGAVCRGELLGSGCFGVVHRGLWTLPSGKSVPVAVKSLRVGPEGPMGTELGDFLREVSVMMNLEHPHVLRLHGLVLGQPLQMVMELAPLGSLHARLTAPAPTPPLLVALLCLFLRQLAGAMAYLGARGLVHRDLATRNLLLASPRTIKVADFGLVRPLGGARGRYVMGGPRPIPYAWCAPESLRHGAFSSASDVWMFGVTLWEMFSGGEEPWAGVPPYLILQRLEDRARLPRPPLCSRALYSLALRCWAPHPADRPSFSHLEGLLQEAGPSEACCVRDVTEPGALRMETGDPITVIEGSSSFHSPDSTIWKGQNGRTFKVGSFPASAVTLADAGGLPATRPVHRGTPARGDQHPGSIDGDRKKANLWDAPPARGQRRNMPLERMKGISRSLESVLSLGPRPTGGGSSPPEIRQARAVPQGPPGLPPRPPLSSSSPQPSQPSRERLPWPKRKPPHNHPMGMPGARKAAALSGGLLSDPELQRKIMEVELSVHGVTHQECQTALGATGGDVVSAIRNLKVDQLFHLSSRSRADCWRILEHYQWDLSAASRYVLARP
GRK7 (human), sequence (Q8WTQ7 whole entry, looked up): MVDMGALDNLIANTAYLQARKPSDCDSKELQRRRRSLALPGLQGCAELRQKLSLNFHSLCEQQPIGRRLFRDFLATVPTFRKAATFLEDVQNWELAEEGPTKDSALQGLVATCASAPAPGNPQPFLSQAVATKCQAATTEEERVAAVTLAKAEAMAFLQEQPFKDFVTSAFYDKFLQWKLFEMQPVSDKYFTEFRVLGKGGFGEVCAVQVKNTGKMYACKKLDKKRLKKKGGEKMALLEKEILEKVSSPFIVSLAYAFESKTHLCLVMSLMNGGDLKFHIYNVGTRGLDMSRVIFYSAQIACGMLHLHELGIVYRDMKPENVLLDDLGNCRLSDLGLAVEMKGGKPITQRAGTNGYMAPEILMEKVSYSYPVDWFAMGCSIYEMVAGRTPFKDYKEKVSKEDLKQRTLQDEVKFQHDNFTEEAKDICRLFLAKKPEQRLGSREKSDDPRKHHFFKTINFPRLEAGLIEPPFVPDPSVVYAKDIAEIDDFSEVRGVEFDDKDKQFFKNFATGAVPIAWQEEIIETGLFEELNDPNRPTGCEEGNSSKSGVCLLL
STK17A (human), sequence (Q9UEE5 whole entry, looked up): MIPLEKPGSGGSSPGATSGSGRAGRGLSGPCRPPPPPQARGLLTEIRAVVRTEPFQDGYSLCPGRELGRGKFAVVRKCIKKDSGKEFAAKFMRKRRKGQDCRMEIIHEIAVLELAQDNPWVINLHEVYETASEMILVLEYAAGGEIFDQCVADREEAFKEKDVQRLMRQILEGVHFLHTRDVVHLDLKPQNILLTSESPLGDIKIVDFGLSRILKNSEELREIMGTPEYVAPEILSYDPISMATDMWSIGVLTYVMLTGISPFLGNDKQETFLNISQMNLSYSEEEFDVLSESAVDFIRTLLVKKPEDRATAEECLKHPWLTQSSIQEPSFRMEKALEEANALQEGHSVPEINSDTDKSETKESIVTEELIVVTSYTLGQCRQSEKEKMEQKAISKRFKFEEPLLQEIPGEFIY
TXK (human), sequence (P42681 whole entry, looked up): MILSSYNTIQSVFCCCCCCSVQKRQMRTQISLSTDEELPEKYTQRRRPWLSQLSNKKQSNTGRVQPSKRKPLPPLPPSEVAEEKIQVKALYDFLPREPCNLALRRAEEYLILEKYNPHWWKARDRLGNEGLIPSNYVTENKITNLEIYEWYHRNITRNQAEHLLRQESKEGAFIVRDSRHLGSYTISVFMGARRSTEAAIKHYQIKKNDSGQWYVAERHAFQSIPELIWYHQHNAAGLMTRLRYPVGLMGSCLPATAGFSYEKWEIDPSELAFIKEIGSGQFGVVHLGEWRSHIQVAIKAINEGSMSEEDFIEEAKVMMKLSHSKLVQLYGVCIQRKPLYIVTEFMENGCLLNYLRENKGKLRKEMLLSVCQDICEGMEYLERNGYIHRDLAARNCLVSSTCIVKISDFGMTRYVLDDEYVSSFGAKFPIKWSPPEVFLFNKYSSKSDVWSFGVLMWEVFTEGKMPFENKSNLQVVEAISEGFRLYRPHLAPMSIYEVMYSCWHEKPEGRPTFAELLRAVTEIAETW
PTK6 (human), sequence (Q13882 whole entry, looked up): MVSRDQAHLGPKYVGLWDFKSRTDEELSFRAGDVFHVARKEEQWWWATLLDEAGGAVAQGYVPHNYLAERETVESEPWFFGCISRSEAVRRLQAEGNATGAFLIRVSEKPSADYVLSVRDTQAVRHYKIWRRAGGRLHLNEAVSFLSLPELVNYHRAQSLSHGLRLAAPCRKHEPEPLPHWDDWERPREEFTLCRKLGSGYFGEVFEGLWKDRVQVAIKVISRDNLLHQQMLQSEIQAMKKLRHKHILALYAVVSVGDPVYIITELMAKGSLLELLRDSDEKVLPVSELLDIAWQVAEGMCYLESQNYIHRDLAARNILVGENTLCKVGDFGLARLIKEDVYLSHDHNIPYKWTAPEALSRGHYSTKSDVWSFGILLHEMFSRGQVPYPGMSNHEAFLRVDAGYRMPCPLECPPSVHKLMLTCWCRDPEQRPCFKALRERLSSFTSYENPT
CSNK1D (human), sequence (P48730 whole entry, looked up): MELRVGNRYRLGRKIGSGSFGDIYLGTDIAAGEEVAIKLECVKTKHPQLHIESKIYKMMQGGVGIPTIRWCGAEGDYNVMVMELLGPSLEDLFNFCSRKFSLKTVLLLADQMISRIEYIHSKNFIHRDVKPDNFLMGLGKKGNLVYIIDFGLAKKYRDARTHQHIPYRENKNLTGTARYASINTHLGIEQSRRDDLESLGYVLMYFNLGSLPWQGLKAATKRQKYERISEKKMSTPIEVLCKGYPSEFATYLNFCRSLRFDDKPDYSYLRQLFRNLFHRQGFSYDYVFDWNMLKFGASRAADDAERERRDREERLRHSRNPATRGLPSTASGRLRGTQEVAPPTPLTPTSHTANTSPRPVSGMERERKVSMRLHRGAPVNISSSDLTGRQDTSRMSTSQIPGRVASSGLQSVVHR

kinase still bound, per cent of control (STK32C (human)): 100%
kinase still bound, per cent of control (CSNK1D (human)): 21%
kinase still bound, per cent of control (PAK2 (human)): 40%
kinase still bound, per cent of control (STK17A (human)): 0%
kinase still bound, per cent of control (TXK (human)): 15%
kinase still bound, per cent of control (MAP2K4 (human)): 67%
kinase still bound, per cent of control (CSNK1G2 (human)): 78%
kinase still bound, per cent of control (EPHB2 (human)): 77%
kinase still bound, per cent of control (NEK1 (human)): 70%
kinase still bound, per cent of control [1]: 28%
kinase still bound, per cent of control (GRK7 (human)): 58%
kinase still bound, per cent of control (CSNK1A1L (human)): 36%
kinase still bound, per cent of control (TLK1 (human)): 47%
kinase still bound, per cent of control (PRKACA (human)): 100%
kinase still bound, per cent of control (ERN1 (human)): 51%
kinase still bound, per cent of control (PRKACB (human)): 100%
kinase still bound, per cent of control (TNK1 (human)): 16%
kinase still bound, per cent of control (PAK6 (human)): 24%
kinase still bound, per cent of control (AKT3 (human)): 100%
kinase still bound, per cent of control (NTRK3 (human)): 16%
kinase still bound, per cent of control (CAMK1G (human)): 42%
kinase still bound, per cent of control (MARK1 (human)): 38%
kinase still bound, per cent of control (WEE1 (human)): 87%
kinase still bound, per cent of control (FLT1 (human)): 1.3%
kinase still bound, per cent of control (FES (human)): 100%
kinase still bound, per cent of control (MAPK1 (human)): 100%
kinase still bound, per cent of control (PRKCQ (human)): 55%
kinase still bound, per cent of control (CAMK4 (human)): 100%
kinase still bound, per cent of control (TIE1 (human)): 55%
kinase still bound, per cent of control (PLK3 (human)): 100%
kinase still bound, per cent of control (MAP3K12 (human)): 19%
kinase still bound, per cent of control (MAPK6 (human)): 100%
kinase still bound, per cent of control (MAP4K5 (human)): 9.2%
kinase still bound, per cent of control (FGFR1 (human)): 18%
kinase still bound, per cent of control (PTK6 (human)): 84%
kinase still bound, per cent of control (IGF1R (human)): 83%
kinase still bound, per cent of control (STK16 (human)): 0.8%
kinase still bound, per cent of control (EPHA7 (human)): 62%
kinase still bound, per cent of control (DYRK1A (human)): 59%
kinase still bound, per cent of control (TNNI3K (human)): 68%
kinase still bound, per cent of control (BTK (human)): 38%
kinase still bound, per cent of control (FGFR4 (human)): 21%
Structure (SMILES): O=C1Nc2cc(Br)ccc2/C1=C1/Nc2ccccc2/C1=N\O
